Laboratory results as given in patent US20130095068A1, “AGENT FOR TREATING HCV INFECTION” (priority 2010, published 2013).
Read-outs that look alike come from different tables or passages of the source.

How the values were obtained:
[1] = tested on: HCV subgenomic replicon (LucNeo#2 replicon cells); assay: Replicon assay, intracellular luciferase activity in LucNeo#2 replicon cells; format: cell-based, Hepatitis C virus; conditions: for Luciferase activity: 72 hours, percentage of solvent-treated group
Excerpt: The inhibitory-effect on HCV replication and the cytotoxicity of a compound of formula (I) of the invention were examined by a replicon assay method using different HCV subgenomic replicon cells from Example 1, specifically LucNeo#2 replicon cells. The LucNeo#2 replicon cells are reporter cells created with the same concept as the luc-ubi-neo/ET replicon cells used in Test Example 1, and are utilized for analysis of the RNA replication mechanism of HCV or anti-HCV drug evaluation, but the gene sequence differs from that of luc-ubi-neo/ET replicon cells (Biochem. Biophys. Res. Commun. 343 (2006) 879-884).
(§1) LucNeo#2 replicon cells cultured to confluency were recovered by trypsin treatment, and were spread on a collagen-coated plate at a density of 20,000 cells/mL. The cell culture was conducted in an incubator at 37° C., 5% CO2, with 10% FCS/DMEM (containing mixed solution of penicillin-streptomycin, G418 and a non-essential amino acid). After 24 hours, the cells were rinsed and a compound of formula (I) was added as Test compound to final concentrations of 3.3 μM or 10 μM. At 72 hours after addition of the Test compound, the cells of one plate were rinsed, the cells were lysed with M-PER, and the intracellular luciferase activity was measured using a Promega kit. An Alamar Blue solution was also added to cells cultured under the same conditions, and the cytotoxicity was examined.
(§2) The intracellular luciferase activity and the Alamar Blue signal for cytotoxicity at 72 hours after Test compound addition were shown in Table 3 as a percentage with respect to the solvent-treated group.

[2] = tested on: LucNeo#2 replicon cells; assay: Cytotoxicity, Alamar Blue in LucNeo#2 replicon cells; format: cell-based; conditions: 72 hours, percentage of solvent-treated group
Experimental: as §1, §2

[3] = tested on: HCV subgenomic replicon (LucNeo#2 replicon cells); assay: HCV replication inhibition in LucNeo#2 replicon cells, luciferase corrected by cell number (Alamar Blue); format: cell-based; conditions: Hepatitis C virus, 96 h, read-out: Inhibition (%) at 1 uM
Experimental: LucNeo#2 replicon cells, which were the HCV subgenomic replicon cells used in Test Example 2, were used to examine HCV replication inhibitory-activity, from which signals were corrected by using cell number.
LucNeo#2 replicon cells cultured to confluency were recovered by trypsin treatment, and were spread on a collagen-coated plate at a density of 1000 cells/well. The cell culture was conducted in an incubator at 37° C., 5% CO2, with 10% FBS/DMEM (containing mixed solution of penicillin-streptomycin and a non-essential amino acid). On the following day or the evening after confirmation of cell adhesion, a compound of formula (I) as the Test compound was added to final concentration of 1.0 to 1.3 μM. At 4 days after the Test compound addition, Alamar Blue diluted 5-fold with PBS(−) was added in an amount of 1/10 for measurement of the fluorescence, to determine the cell count. After the Alamar Blue measurement, the luminescence from intracellular luciferase activity was determined by adding substrate solution in an amount of 5/11 using a Promega kit.
The Alamar Blue activity and luciferase activity were determined by subtracting the values measured for wells without cells. Next, the luciferase activity value×1000 was divided by the value from Alamar Blue measurement, then, the total activity was defined as the value calculated without the Test compound, and the percentages of inhibition by the Test compound was calculated in respect to total activity and listed in Table 4.

[4] = 1 uM, 4 days, luciferase activity per Alamar Blue value

| Compound | inhibition at 1 µM [3, 4] [%] | other results |
| --- | --- | --- |
| COc1cc(/C=C2\CCCN([C@@H](CO)c3ccc(F)cc3)C2=O)ccc1-n1cnc(C)c1 [Test compound C, (E)-1-[(1R)-1-(4-fluorophenyl)-2-hydroxyethyl]-3-[3-methoxy-4-(4-methyl-1H-imidazol-1-yl)benzylidene]piperidin-2-one] |  | Luciferase activity ([1]; 3.3 μM): 93.50%; Luciferase activity ([1]; 10 μM): 55.00%; HCV replication inhibitory-activity (in words) ([1]; LucNeo#2 replicon cells, 3.3 and 10 μM): potent HCV replication inhibitory-activity by reducing the luciferase activity in a dose-dependent manner; Cytotoxicity (Alamar Blue signal) ([2]; 3.3 μM): 101.00%; Cytotoxicity (Alamar Blue signal) ([2]; 10 μM): 102.00% |
| COc1cc(/C=C/C(=O)NCc2ccc(Cl)cc2)ccc1-n1ccnc1 [compound 13] | 65.9 |  |
| CC(O)c1cc(/C=C/C(=O)NC2CCc3ccccc32)ccc1-n1ccnc1 (stereo not shown) [compound 14] | 73.4 |  |
| O=Cc1cc(/C=C/C(=O)NC2CCc3ccccc32)ccc1-n1ccnc1 (stereo not shown) [compound 15] | 73.3 |  |
| COc1cc(/C=C/C(=O)NCC2CCCCC2)ccc1-n1ccnc1 [compound 16] | 71.2 |  |
| COc1cc(/C=C/C(=O)NC2(c3ccccc3)CC2)ccc1-n1ccnc1 [compound 17] | 87.7 |  |
| Cc1cn(-c2ccc(/C=C/C(=O)NC3CCc4ccccc43)cc2Br)cn1 (stereo not shown) [compound 18] | 75.3 |  |
| Cc1cn(-c2ccc(/C=C/C(=O)NC3CCc4ccccc43)cc2Cl)cn1 (stereo not shown) [compound 19] | 75.4 |  |
| O=C(/C=C/c1ccc(-n2ccnc2)c(C(F)(F)F)c1)NC1CCc2ccccc21 (stereo not shown) [compound 20] | 76.7 |  |
| CC(=O)c1cc(/C=C/C(=O)NC2CCc3ccccc32)ccc1-n1ccnc1 (stereo not shown) [compound 21] | 81.9 |  |
| COc1cc(/C=C/C(=O)N(C)Cc2ccccc2)ccc1-n1ccnc1 [compound 22] | 66.3 |  |
| COc1cc(/C=C/C(=O)NC(Cc2ccccc2)c2ccccc2)ccc1-n1ccnc1 (stereo not shown) [compound 23] | 71.6 |  |
| Cc1cncn1-c1ccc(/C=C/C(=O)NC2CCc3ccccc32)cc1C#N (stereo not shown) [compound 25] | 83.5 |  |
| O=C(/C=C/c1ccc(-n2ccnc2)c(Cl)c1)NC1CCc2ccccc21 (stereo not shown) [compound 26] | 75.5 |  |
| COc1cc(/C=C/C(=O)NC2Cc3ccccc3C2)ccc1-n1ccnc1 [compound 27] | 69 |  |
| COc1cc(/C=C/C(=O)NCc2ccccc2)ccc1-n1ccnc1 [compound 28] | 70.5 |  |
| COc1cc(/C=C/C(=O)NCc2cccc(F)c2)ccc1-n1ccnc1 [compound 29] | 62.8 |  |
| COc1cc(/C=C\C(=O)NC2CCc3ccccc32)ccc1-n1ccnc1 (stereo not shown) [compound 30] | 66.4 |  |
| Cc1cc(/C=C/C(=O)NC2CCc3ccccc32)ccc1-n1ccnc1 (stereo not shown) [compound 31] | 71 |  |
| COc1cc(/C=C/C(=O)NC2CCc3ccccc32)ccc1-n1cncc1Cl (stereo not shown) [compound 32] | 71.8 |  |
| COc1cc(/C=C/C(=O)NC2CCCc3ccccc32)ccc1-n1ccnc1 (stereo not shown) [compound 33] | 86.8 |  |
| CS(=O)(=O)c1cc(/C=C/C(=O)NC2CCc3ccccc32)ccc1-n1ccnc1 (stereo not shown) [compound 34] | 70.2 |  |
| Cc1ncn(-c2ccc(/C=C/C(=O)NC3CCc4ccccc43)cc2F)c1C (stereo not shown) [compound 35] | 77.2 |  |
| CCC(NC(=O)/C=C/c1ccc(-n2cnc(C)c2)c(OC)c1)c1cccnc1 (stereo not shown) [compound 36] | 75.7 |  |
| COc1cc(/C=C/C(=O)NCc2ccccc2C(F)(F)F)ccc1-n1ccnc1 [compound 37] | 77.1 |  |
| COc1ccccc1CNC(=O)/C=C/c1ccc(-n2ccnc2)c(OC)c1 [compound 38] | 63.7 |  |

| Compound | inhibition at 1 µM [3, 4] [%] | other results |
| --- | --- | --- |
| COc1cc(/C=C/C(=O)NCc2ccc(C(F)(F)F)cc2)ccc1-n1ccnc1 [compound 39] | 53.2 |  |
| COc1ccc(CNC(=O)/C=C/c2ccc(-n3ccnc3)c(F)c2)cc1 [compound 40] | 59.4 |  |
| COc1cc(/C=C/C(=O)NCCc2cccc(Cl)c2)ccc1-n1ccnc1 [compound 41] | 71.8 |  |
| COc1cc(/C=C/C(=O)NC(c2ccccc2)c2ccccc2)ccc1-n1ccnc1 [compound 42] | 75.8 |  |
| COCc1cn(-c2ccc(/C=C/C(=O)NC3CCc4ccccc43)cc2F)cn1 (stereo not shown) [compound 43] | 55.8 |  |
| CC(C)Oc1cc(/C=C/C(=O)NC2CCc3ccccc32)ccc1-n1ccnc1 (stereo not shown) [compound 44] | 64.6 |  |
| COc1cc(/C=C/C(=O)NNCc2ccccc2)ccc1-n1ccnc1 [compound 45] | 68.8 |  |
| COCc1cc(/C=C/C(=O)NC2CCc3ccccc32)ccc1-n1ccnc1 (stereo not shown) [compound 46] | 86.4 |  |
| Cc1cn(-c2ccc(/C=C/C(=O)NC3CCc4ccccc43)cc2OC2CCCC2)cn1 (stereo not shown) [compound 47] | 63.8 |  |
| COc1cc(/C=C/C(=O)NCCc2ccc(Cl)cc2)ccc1-n1ccnc1 [compound 48] | 61.3 |  |
| COc1cc(/C=C/C(=O)N(CCO)Cc2ccccc2)ccc1-n1cc(C)nc1C [compound 49] | 71.6 |  |
| COc1cc(/C=C/C(=O)N2CCC3(CC2)OCc2ccccc23)ccc1-n1cc(C)nc1C [compound 50] | 52.3 |  |
| COc1cc(/C=C/C(=O)N2C[C@H]2c2ccccc2)ccc1-n1cnc(C)c1 [compound 51] | 62.2 |  |
| COc1cc(/C=C/C(=O)N2CCC(n3c(=O)[nH]c4ccccc43)CC2)ccc1-n1ccnc1 [compound 52] | 51.4 |  |
| COc1cc(/C=C2\CCCN([C@@H](C)c3ccc(F)cc3)C2=O)ccc1-n1cnc(C)c1 [compound 53] |  | inhibition at 1 µM [3]: 30.9% |
| COc1cc(/C=C2\CCCN([C@@H](CO)c3ccc(F)cc3)C2=O)ccc1-n1cnc(C)c1 [compound 54] | 14.2 |  |
| COc1cc(/C=C2\CC[C@H]3COC[C@@H](c4cc(F)c(F)c(F)c4)N3C2=O)ccc1-n1cnc(C)c1 [compound 55] | 66.8 |  |
| COc1cc(/C=C2\CCN([C@@H](C)c3ccc(F)cc3)C2=O)ccc1-n1cnc(C)c1 [compound 56] | 65.8 |  |
| COc1cc(C#CC(=O)NC(C)c2ccccc2)ccc1-n1cnc(C)c1 (stereo not shown) [compound 58] | 64.6 |  |
| COc1cc(/C=C2\NC(=O)N(Cc3ccccc3)C2=O)ccc1-n1cnc(C)c1 [compound 59] | 51.9 |  |
| COc1cc(/C=C2/C[C@H]3CCC[C@H](c4ccc(F)c(F)c4)N3C2=O)ccc1-n1cnc(C)c1 [compound 60] | 50.5 |  |
| COc1cc(/C(F)=C(/C)C(=O)NC2CCc3ccccc32)ccc1-n1cnc(C)c1 (stereo not shown) [compound 61] | 50.5 |  |
| COc1cc(/C=C2\NC(=S)N(Cc3ccccc3)C2=O)ccc1-n1cnc(C)c1 [compound 62] | 68.2 |  |
| COc1cc(/C=C2\CCCN([C@H](C)c3ccc(C#N)s3)C2=O)ccc1-n1cnc(C)c1 [compound 63] | 70.7 |  |
| C/C(=C\C(=O)NC1CCc2ccccc21)c1ccc(-n2ccnc2)c(F)c1 (stereo not shown) [compound 64] | 78 |  |
